Results as given in ChEMBL document CHEMBL3856212, “Synthesis, anti-proliferative and genotoxicity studies of 6-chloro-5-(2-substituted-ethyl)-1,3-dihydro-2H-indol-2-ones and 6-chloro-5-(2-chloroethyl)-3-(alkyl/ary-2-ylidene)indolin-2-ones” (Eur J Med Chem, 2016).

Assays:
[1] = Cytotoxicity against human UACC257 cells assessed as assessed as growth inhibition at 10^-5 M after 48 hrs by SRB assay relative to control; assay type: functional; details: UACC-257, 48 h, read-out: GI
[2] = Cytotoxicity against human NCI-H460 cells assessed as growth inhibition after 48 hrs by SRB assay; assay type: functional; details: NCI-H460, 48 h
[3] = Cytotoxicity against human Caki1 cells assessed as assessed as growth inhibition at 10^-5 M after 48 hrs by SRB assay relative to control; assay type: functional; details: CAKI-1, 48 h, read-out: GI
[4] = Cytotoxicity against human TK10 cells assessed as assessed as growth inhibition at 10^-5 M after 48 hrs by SRB assay relative to control; assay type: functional; details: TK-10, 48 h, read-out: GI
[5] = Cytotoxicity against human HCT116 cells assessed as assessed as growth inhibition at 10^-5 M after 48 hrs by SRB assay relative to control; assay type: functional; details: HCT-116, 48 h, read-out: GI
[6] = Cytotoxicity against human SF539 cells assessed as growth inhibition after 48 hrs by SRB assay; assay type: functional; details: SF-539, 48 h
[7] = Cytotoxicity against human SW620 cells assessed as growth inhibition after 48 hrs by SRB assay; assay type: functional; details: SW-620, 48 h
[8] = Cytotoxicity against human Caki1 cells assessed as growth inhibition after 48 hrs by SRB assay; assay type: functional; details: CAKI-1, 48 h
[9] = Cytotoxicity against human SNB19 cells assessed as assessed as growth inhibition at 10^-5 M after 48 hrs by SRB assay relative to control; assay type: functional; details: SNB-19, 48 h, read-out: GI
[10] = Cytotoxicity against human SK-MEL-2 cells assessed as assessed as growth inhibition at 10^-5 M after 48 hrs by SRB assay relative to control; assay type: functional; details: SK-MEL-2, 48 h, read-out: GI
[11] = Cytotoxicity against human T47D cells assessed as growth inhibition after 48 hrs by SRB assay; assay type: functional
[12] = Cytotoxicity against human NCI-H23 cells assessed as growth inhibition after 48 hrs by SRB assay; assay type: functional; details: NCI-H23, 48 h
[13] = Cytotoxicity against human NCI-H522 cells assessed as growth inhibition after 48 hrs by SRB assay; assay type: functional; details: NCI-H522, 48 h
[14] = Cytotoxicity against human MOLT4 cells assessed as growth inhibition after 48 hrs by SRB assay; assay type: functional; details: MOLT-4, 48 h
[15] = Cytotoxicity against human KM12 cells assessed as growth inhibition after 48 hrs by SRB assay; assay type: functional; details: KM12, 48 h
[16] = Cytotoxicity against human OVCAR4 cells assessed as growth inhibition after 48 hrs by SRB assay; assay type: functional; details: OVCAR-4, 48 h
[17] = Cytotoxicity against human NCI-H322M cells assessed as assessed as growth inhibition at 10^-5 M after 48 hrs by SRB assay relative to control; assay type: functional; details: read-out: GI
[18] = Cytotoxicity against human OVCAR3 cells assessed as growth inhibition after 48 hrs by SRB assay; assay type: functional; details: OVCAR-3, 48 h
[19] = Cytotoxicity against human SNB75 cells assessed as assessed as growth inhibition at 10^-5 M after 48 hrs by SRB assay relative to control; assay type: functional; details: SNB-75, 48 h, read-out: GI
[20] = Induction of apoptosis in mouse EAC cells at 500 uM after 24 hrs by acridine orange dye-based fluorescence microscopy (reference value: 0.66 +/- 0.33%); assay type: cell-based; details: ehrlich
[21] = Induction of apoptosis in mouse EAC cells at 375 uM after 24 hrs by acridine orange dye-based fluorescence microscopy (reference value: 0.66 +/- 0.33%); assay type: cell-based; details: ehrlich
[22] = Cytotoxicity against human HOP62 cells assessed as assessed as growth inhibition at 10^-5 M after 48 hrs by SRB assay relative to control; assay type: functional; details: HOP-62, 48 h, read-out: GI
[23] = Cytotoxicity against human M14 cells assessed as growth inhibition after 48 hrs by SRB assay; assay type: functional; details: M14, 48 h
[24] = Cytotoxicity against human U251 cells assessed as assessed as growth inhibition at 10^-5 M after 48 hrs by SRB assay relative to control; assay type: functional; details: U-251, 48 h, read-out: GI
[25] = Cytotoxicity against human RXF393 cells assessed as assessed as growth inhibition at 10^-5 M after 48 hrs by SRB assay relative to control; assay type: functional; details: RXF 393, 48 h, read-out: GI
[26] = species on record: Mus musculus; test: Genotoxicity in mouse EAC cells at 125 uM after 24 hrs by micronucleus assay (reference value: 3.5 +/- 0.30%); assay type: toxicity, cell-based; details: ehrlich
[27] = Cytotoxicity against human COLO205 cells assessed as growth inhibition after 48 hrs by SRB assay; assay type: functional; details: COLO 205, 48 h
[28] = Cytotoxicity against human EKVX cells assessed as growth inhibition after 48 hrs by SRB assay; assay type: functional
[29] = Cytotoxicity against human IGROV1 cells assessed as assessed as growth inhibition at 10^-5 M after 48 hrs by SRB assay relative to control; assay type: functional; details: IGROV-1, 48 h, read-out: GI
[30] = Cytotoxicity against human DU145 cells assessed as growth inhibition after 48 hrs by SRB assay; assay type: functional; details: DU-145, 48 h
[31] = Cytotoxicity against human SKOV3 cells assessed as growth inhibition after 48 hrs by SRB assay; assay type: functional; details: SK-OV-3, 48 h
[32] = Cytotoxicity against human LOXIMVI cells assessed as assessed as growth inhibition at 10^-5 M after 48 hrs by SRB assay relative to control; assay type: functional; details: LOX IMVI, read-out: GI
[33] = Cytotoxicity against human NCI-ADR-RES cells assessed as growth inhibition after 48 hrs by SRB assay; assay type: functional
[34] = Cytotoxicity against human OVCAR8 cells assessed as growth inhibition after 48 hrs by SRB assay; assay type: functional; details: OVCAR-8, 48 h
[35] = read-out: LD50 (the source's name)

**Q.** With `O=C1Cc2cc(CCN3CCNCC3)c(Cl)cc2N1` as the molecule, how does the inhibition of growth at 10 µM [1] read?
**A.** Its inhibition of growth at 10 µM is 48%.

**Q.** And the GI50 [2]?
**A.** The GI50 was 2.29 µM.

**Q.** What about the TGI [2] of the same molecule?
**A.** Its TGI is greater than 1 µM.

**Q.** What about the CC50 [2, 35] of the same molecule?
**A.** The CC50 was greater than 1 µM.

**Q.** What about the inhibition of growth at 10 µM [3] of the same molecule?
**A.** The inhibition of growth at 10 µM was 37.2%.

**Q.** What about the inhibition of growth at 10 µM [4] of the same molecule?
**A.** Its inhibition of growth at 10 µM is 10.9%.

**Q.** What about the inhibition of growth at 10 µM [5] of the same molecule?
**A.** Its inhibition of growth at 10 µM is 34.8%.

**Q.** What about the GI50 [6] of the same molecule?
**A.** Its GI50 is 1 µM.

**Q.** What about the TGI [6] of the same molecule?
**A.** Its TGI is greater than 1 µM.

**Q.** And the CC50 [6, 35]?
**A.** The CC50 was greater than 1 µM.

**Q.** And the GI50 [7]?
**A.** The GI50 was 4.97 µM.

**Q.** What about the TGI [7] of the same molecule?
**A.** Its TGI is greater than 1 µM.

**Q.** What about the CC50 [7, 35] of the same molecule?
**A.** Its CC50 is greater than 1 µM.

**Q.** What about the GI50 [8] of the same molecule?
**A.** Its GI50 is 6.11 µM.

**Q.** What about the TGI [8] of the same molecule?
**A.** Its TGI is greater than 1 µM.

**Q.** What about the CC50 [8, 35] of the same molecule?
**A.** The CC50 was greater than 1 µM.

**Q.** And the inhibition of growth at 10 µM [9]?
**A.** The inhibition of growth at 10 µM was 42.4%.

**Q.** And the inhibition of growth at 10 µM [10]?
**A.** The inhibition of growth at 10 µM was 53.9%.

**Q.** What about the GI50 [11] of the same molecule?
**A.** The GI50 was 2.91 µM.

**Q.** And the TGI [11]?
**A.** The TGI was greater than 1 µM.

**Q.** What about the CC50 [11, 35] of the same molecule?
**A.** The CC50 was greater than 1 µM.

**Q.** What about the GI50 [12] of the same molecule?
**A.** Its GI50 is 4.64 µM.

**Q.** And the TGI [12]?
**A.** The TGI was greater than 1 µM.

**Q.** What about the CC50 [12, 35] of the same molecule?
**A.** The CC50 was greater than 1 µM.

**Q.** And the GI50 [13]?
**A.** The GI50 was 4.88 µM.

**Q.** What about the TGI [13] of the same molecule?
**A.** The TGI was greater than 1 µM.

**Q.** What about the CC50 [13, 35] of the same molecule?
**A.** The CC50 was greater than 1 µM.

**Q.** And the GI50 [14]?
**A.** The GI50 was 1 µM.

**Q.** And the TGI [14]?
**A.** Its TGI is greater than 1 µM.

**Q.** What about the CC50 [14, 35] of the same molecule?
**A.** The CC50 was greater than 1 µM.

**Q.** And the GI50 [15]?
**A.** The GI50 was 3.96 µM.

**Q.** What about the TGI [15] of the same molecule?
**A.** The TGI was greater than 1 µM.

**Q.** What about the CC50 [15, 35] of the same molecule?
**A.** The CC50 was greater than 1 µM.

**Q.** And the GI50 [16]?
**A.** Its GI50 is 8.78 µM.

**Q.** What about the TGI [16] of the same molecule?
**A.** The TGI was greater than 1 µM.

**Q.** What about the CC50 [16, 35] of the same molecule?
**A.** Its CC50 is greater than 1 µM.

**Q.** What about the inhibition of growth at 10 µM [17] of the same molecule?
**A.** The inhibition of growth at 10 µM was 19.3%.

**Q.** What about the GI50 [18] of the same molecule?
**A.** The GI50 was 1.41 µM.

**Q.** And the TGI [18]?
**A.** The TGI was greater than 1 µM.

**Q.** And the CC50 [18, 35]?
**A.** Its CC50 is greater than 1 µM.

**Q.** What about the inhibition of growth at 10 µM [19] of the same molecule?
**A.** Its inhibition of growth at 10 µM is 38.6%.

**Q.** What about the Activity [20] of the same molecule?
**A.** The Activity was 0.86%.

**Q.** And the Activity [21]?
**A.** Its Activity is 1.33%.

**Q.** What about the inhibition of growth at 10 µM [22] of the same molecule?
**A.** Its inhibition of growth at 10 µM is 43.7%.

**Q.** What about the GI50 [23] of the same molecule?
**A.** The GI50 was 3.02 µM.

**Q.** What about the TGI [23] of the same molecule?
**A.** The TGI was 2.65 µM.

**Q.** What about the CC50 [23, 35] of the same molecule?
**A.** The CC50 was greater than 1 µM.

**Q.** And the inhibition of growth at 10 µM [24]?
**A.** Its inhibition of growth at 10 µM is 43%.

**Q.** And the inhibition of growth at 10 µM [25]?
**A.** The inhibition of growth at 10 µM was 60.1%.

**Q.** And the Activity [26]?
**A.** Its Activity is 3.36%.

**Q.** And the GI50 [27]?
**A.** The GI50 was 1.97 µM.

**Q.** What about the TGI [27] of the same molecule?
**A.** The TGI was greater than 1 µM.

**Q.** What about the CC50 [27, 35] of the same molecule?
**A.** Its CC50 is greater than 1 µM.

**Q.** And the GI50 [28]?
**A.** Its GI50 is 3.58 µM.

**Q.** What about the TGI [28] of the same molecule?
**A.** The TGI was greater than 1 µM.

**Q.** What about the CC50 [28, 35] of the same molecule?
**A.** The CC50 was greater than 1 µM.

**Q.** What about the inhibition of growth at 10 µM [29] of the same molecule?
**A.** The inhibition of growth at 10 µM was 11%.

**Q.** What about the GI50 [30] of the same molecule?
**A.** The GI50 was 1.99 µM.

**Q.** What about the TGI [30] of the same molecule?
**A.** Its TGI is greater than 1 µM.

**Q.** And the CC50 [30, 35]?
**A.** Its CC50 is greater than 1 µM.

**Q.** What about the GI50 [31] of the same molecule?
**A.** Its GI50 is 1 µM.

**Q.** And the TGI [31]?
**A.** The TGI was greater than 1 µM.

**Q.** What about the CC50 [31, 35] of the same molecule?
**A.** The CC50 was greater than 1 µM.

**Q.** And the inhibition of growth at 10 µM [32]?
**A.** Its inhibition of growth at 10 µM is 21.4%.

**Q.** And the GI50 [33]?
**A.** The GI50 was 5.11 µM.

**Q.** And the TGI [33]?
**A.** Its TGI is greater than 1 µM.

**Q.** And the CC50 [33, 35]?
**A.** The CC50 was greater than 1 µM.

**Q.** And the GI50 [34]?
**A.** The GI50 was 3.68 µM.

**Q.** What about the TGI [34] of the same molecule?
**A.** Its TGI is greater than 1 µM.

**Q.** And the CC50 [34, 35]?
**A.** Its CC50 is greater than 1 µM.
